The structures appear in SMILES notation.

This is an account of results in patent US9605008B2, “Benzyl-1H-pyrazolo[3,4-b]pyridines and use thereof” (BAYER PHARMA AKTIENGESELLSCHAFT, priority 2013, dated 2017).

The target of test [1] is recombinant guanylate cyclase reporter cell line (Rattus norvegicus (Rat), UniProt P19686+P20595). Kind of test: Effect on a recombinant guanylate cyclase reporter cell line. Type of test: cell-based. The following applies: in some cases means of individual determinations. How it is done:
B-2. Effect on a Recombinant Guanylate Cyclase Reporter Cell Line
The cellular activity of the compounds according to the invention is determined using a recombinant guanylate cyclase reporter cell line, as described in F. Wunder et al., Anal. Biochem. 339, 104-112 (2005).
Representative values (MEC=minimum effective concentration) for the compounds according to the invention are shown in the table below (Table 1; in some cases as means of individual determinations): […]

In test [2] the target is human phosphodiesterase 5 (PDE 5) (Homo sapiens (Human), UniProt O76074). Briefly: Inhibition of human phosphodiesterase 5 (PDE 5). The class given is biochemical. The following applies: PDE 5 preparation from human platelets; [8-3H] cGMP substrate, SPA; in some cases means of individual determinations. The method, then:
B-3. Inhibition of Human Phosphodiesterase 5 (PDE 5)
PDE 5 preparations are obtained from human platelets by disruption (Microfluidizer®, 800 bar, 3 passes), followed by centrifugation (75000 g, 60 min, 4° C.) and ion exchange chromatography of the supernatant on a Mono Q 10/10 column (linear sodium chloride gradient, elution with a 0.2-0.3M solution of sodium chloride in buffer (20 mM Hepes pH 7.2, 2 mM magnesium chloride). Fractions having PDE 5 activity are combined (PDE 5 preparation) and stored at −80° C.
To determine their in vitro action on human PDE 5, the test substances are dissolved in 100% DMSO and serially diluted. Typically, dilution series (1:3) from 200 μM to 0.091 μM are prepared (resulting final concentrations in the test: 4 μM to 0.0018 μM). In each case 2 μl of the diluted substance solutions are placed into the wells of microtitre plates (Isoplate-96/200W; Perkin Elmer). Subsequently, 50 μl of a dilution of the above-described PDE 5 preparation are added. The dilution of the PDE 5 preparation is chosen such that during the later incubation less than 70% of the substrate are converted (typical dilution: 1:100; dilution buffer: 50 mM tris/hydrochloric acid pH 7.5, 8.3 mM magnesium chloride, 1.7 mM EDTA, 0.2% BSA). The substrate, [8-^3H] cyclic guanosine-3′,5′-monophosphate (1 μCi/μl; Perkin Elmer) is diluted 1:2000 with assay buffer (50 mM tris/hydrochloric acid pH 7.5, 8.3 mM magnesium chloride, 1.7 mM EDTA) to a concentration of 0.0005 μCi/μl. By addition of 50 μl (0.025 μCi) of the diluted substrate, the enzyme reaction is finally started. The test mixtures are incubated at room temperature for 60 min and the reaction is stopped by adding 25 μl of a suspension of 18 mg/ml yttrium scintillation proximity beads in water (phosphodiesterase beads for SPA assays, RPNQ 0150, Perkin Elmer). The microtitre plates are sealed with a film and left to stand at room temperature for 60 min. Subsequently, the plates are analysed for 30 s per well in a Microbeta scintillation counter (Perkin Elmer). IC50 values are determined using the graphic plot of the substance concentration against percentage PDE 5 inhibition.

Chain of recombinant guanylate cyclase reporter cell line (P19686 whole entry): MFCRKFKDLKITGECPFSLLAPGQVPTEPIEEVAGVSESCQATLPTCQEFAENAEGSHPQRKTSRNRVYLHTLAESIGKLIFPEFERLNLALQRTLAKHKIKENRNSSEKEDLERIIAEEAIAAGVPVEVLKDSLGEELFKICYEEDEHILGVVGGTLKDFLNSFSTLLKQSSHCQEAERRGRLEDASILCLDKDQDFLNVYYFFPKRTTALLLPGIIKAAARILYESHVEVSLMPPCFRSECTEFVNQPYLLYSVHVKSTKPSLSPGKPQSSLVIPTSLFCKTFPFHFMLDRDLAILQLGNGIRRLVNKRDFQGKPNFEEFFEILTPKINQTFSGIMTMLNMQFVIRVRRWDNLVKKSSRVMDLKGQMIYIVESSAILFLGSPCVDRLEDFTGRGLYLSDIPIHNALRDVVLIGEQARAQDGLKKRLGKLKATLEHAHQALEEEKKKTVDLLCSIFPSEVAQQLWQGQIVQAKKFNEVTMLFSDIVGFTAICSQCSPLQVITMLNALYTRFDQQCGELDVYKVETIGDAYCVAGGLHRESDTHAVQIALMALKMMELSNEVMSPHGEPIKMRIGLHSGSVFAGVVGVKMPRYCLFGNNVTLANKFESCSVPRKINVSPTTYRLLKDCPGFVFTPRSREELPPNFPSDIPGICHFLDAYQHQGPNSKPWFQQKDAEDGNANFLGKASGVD
Chain of recombinant guanylate cyclase reporter cell line (P20595 whole entry): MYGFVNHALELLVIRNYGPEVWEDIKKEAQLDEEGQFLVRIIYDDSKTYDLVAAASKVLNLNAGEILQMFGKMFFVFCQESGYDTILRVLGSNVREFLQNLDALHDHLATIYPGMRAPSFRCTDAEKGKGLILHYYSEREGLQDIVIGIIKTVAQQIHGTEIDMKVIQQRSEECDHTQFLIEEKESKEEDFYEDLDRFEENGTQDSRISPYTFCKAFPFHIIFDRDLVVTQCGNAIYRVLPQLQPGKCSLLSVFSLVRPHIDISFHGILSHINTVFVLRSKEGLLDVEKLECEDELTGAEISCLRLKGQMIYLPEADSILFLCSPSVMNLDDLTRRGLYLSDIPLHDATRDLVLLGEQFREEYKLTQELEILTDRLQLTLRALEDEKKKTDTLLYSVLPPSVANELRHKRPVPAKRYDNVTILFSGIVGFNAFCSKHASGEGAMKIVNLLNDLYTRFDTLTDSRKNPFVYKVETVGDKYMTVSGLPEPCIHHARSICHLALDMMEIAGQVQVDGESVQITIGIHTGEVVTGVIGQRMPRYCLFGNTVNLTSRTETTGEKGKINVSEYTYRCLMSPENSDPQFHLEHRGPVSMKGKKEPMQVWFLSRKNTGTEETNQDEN

As to `Cc1ccc2c(-c3nnc4c(n3)NC(=O)C43CC3)nn(Cc3ccc(C)c(F)c3F)c2n1` [Example 26, 3′-[1-(2,3-Difluoro-4-methylbenzyl)-6-methyl-1H-pyrazolo[3,4-b]pyridin-3-yl]spiro[cyclopropane-1,7′-pyrrolo[2,3-e][1,2,4]triazin]-6′(5′H)-one], the “MEC (minimum effective concentration)” value in test [1] was found to be 300 nM. The same compound returned an IC50 in test [2] of 4 nM.
